The record followed here is article PMC9728906 (2022).

Test [1] deals with human telomeric G-quadruplex DNA, AG3(TTAGGG)3 (DNA, G4) AGGGTTAGGGTTAGGGTTAGGG
Nature of the test: fluorescence titration, modified Scatchard, non-linear fit (r versus Cf). As to conditions: 100 mM KCl; 10 mM Tris-HCl, 1 mM Na2EDTA, pH 7.4, ≤10% ethylene glycol; 5 µM compound; average over sites.

The test system is the same in test [2]. Nature of the test: CD melting at 293 nm. As to conditions: 100 mM KCl; 10 mM Tris-HCl, 1 mM Na2EDTA, pH 7.4, 10% ethylene glycol; equimolar 3.93 µM compound and DNA (1:1).
Test [3] has the same test system. Nature of the test: fluorescence titration, Scatchard, two-line linear fit. The conditions noted are these: 100 mM KCl; 10 mM Tris-HCl, 1 mM Na2EDTA, pH 7.4, ≤10% ethylene glycol; 5 µM compound; site 1 of 2.
Test [4] concerns fluorescein-labelled telomeric G-quadruplex DNA (DNA, G4) AGGGTTAGGGTTAGGGTTAGGG
The test can be described thus: fluorescein fluorescence quenching. As to conditions: 100 mM KCl; 10 mM Tris-HCl, 1 mM Na2EDTA, pH 7.4; 2 µM DNA; more than 90% quenching.

Compound `CN(C)c1cc2c(Nc3ccc4c(cnn4Cc4ccccc4)c3)ncnc2cn1` yielded a K in test [1] of 2.65e+06 M⁻¹. Further, in test [2], the ΔTm came out at 9.9 °C. The compound further yielded a K1 in test [3] of 1.3e+08 M⁻¹. Further, the binding entry in test [4] is given as “yes”.
`COc1ccc(CCCn2ncc3c2nc(N)n2nc(-c4ccco4)nc32)cc1`: in test [1], the K was determined as 700000 M⁻¹. Moreover, the thermal shift (ΔTm) in test [2] worked out at 9.6 °C. Also, the K1 in test [3] came out at 1.55e+07 M⁻¹. The binding result in test [4] is “yes”.
